{"source": "patent US7156881B2", "about": "“Counteracting bioprosthetic calcification” (The Children's Hospital of Philadelphia, priority 2002, dated 2007)", "key": {"[1]": {"test": "Kinetics of epoxy-ring opening with different nucleophiles (t-butyl glycidyl ether in water)", "type": "physicochemical", "details": "for reactivity relative to nucleophiles without a sulfur atom: 20° C. and pH of about 7; for Reacted substrate / k · 10^3: 20° C., pH ca. 7", "from_the_text": "Pursuant to the present invention, the functional groups need to cleave an epoxy ring, and nucleophilic groups are illustrative in this respect."}, "[2]": {"test": "Kinetics of epoxy-ring opening with different nucleophiles (triglicidyl amine in water)", "type": "physicochemical", "details": "20° C.; for K * 10^3 / Reacted substrate: pH ca. 7; for rate of reaction with TGA-epoxy (k): pH 7.4, 20 mM of MABP", "from_the_text": "The bioprosthetic materials treated by both MABP and TGA show a significant improvement in anti-calcification ability. Consequently, it is believed that the MABP has successfully met the above-mentioned criteria, i.e., the reactive functional group is active enough to dominate the co-attachment reaction between MABP and TGA, and to cause MABP to attach to a TGA epoxide more completely."}, "[3]": {"test_system": "porcine aortic valve cusps", "test": "21-day rat subdermal implants, Ca content by atomic absorption: cusp", "type": "in vivo, Sprague-Dawley rats", "details": "Cusp implanted", "procedure": "(§1) A series of bioprosthetic material samples were prepared, in order to compare the anti-calcification efficacy of TGA-MABP with TGA crosslinking alone. The material used were porcine aortic valve cusps, porcine aortic wall, and bovine pericardium. These materials were obtained fresh at slaughter and transported to the laboratory on ice."}, "[4]": {"test": "Rat weight in 21-day subdermal implant study", "details": "21-day rat subdermal implants", "method": "All materials were rinsed thoroughly with normal saline, and 1 cm^2 pieces of aortic wall, pericardium, or individual cusp leaflets crosslinked with 100 mM TGA with the inclusion of 20 mM MABP, as described above with daily replacement of solutions for 7 days. After thorough rinse with normal saline, biomaterials were surgically implanted in dorsal subdermal pouches of 75–80 g male Sprague-Dawley rats as previously described. Animals were sacrificed after 21 days, implants recovered, rinsed, dried, and analyzed for Ca content by atomic absorption spectroscopy (AA)."}, "[5]": {"test": "TGA cross-linking of bovine pericardium, shrink temperature (Ts) by DSC", "type": "physicochemical", "details": "for shrink temperature (Ts): 100 mM TGA, borate mannitol buffer pH 7.4, room temperature", "procedure": "Bovine pericardium was obtained fresh at slaughter and transported to the lab on ice. After extensive rinsing with normal saline, the tissue was cut into 1 cm squares and segregated into 5 groups for crosslinking as described below. Reactions were carried out at room temperature on a rocker platform for 7 days with daily replacement of each solution with one freshly prepared in borate mannitol buffer (9.33 g/l sodium tetraborate, −˜2 g mannitol to pH 7.4). Pericardial samples were removed from the reaction vessels daily, rinsed and stored individually at 4° C. in normal saline for shrink temperature determination (Ts) by Differential Scanning […] (DSC) analysis at the end of the experiment.\nMABP stock solution was prepared daily by adding water, neutralizing with NaHCO3, and diluting to one of the three desired concentrations (2 mM, 20 mM, 100 mM) in boratemannitol buffer. TGA then was added to each solution to a final concentration of 100 mM TGA. Two additional groups were treated solely with 100 mM TGA in the same buffer for 7 days, and one of these treated again on day 8 with 100 mM MABP in buffer.\nFurther experiments were done testing the anti-calcification potential of MABP co-attachment utilized the maximum non-interfering condition tested: 20 mM MABP and 100 mM TGA in borate-mannitol buffer, pH 7.4. Those experimental data are shown in Table III and graphically in FIG. 1."}, "porcine aortic wall": {"test_system": "porcine aortic wall", "test": "21-day rat subdermal implants, Ca content by atomic absorption: aortic wall", "type": "in vivo, Sprague-Dawley rats", "details": "Aortic wall implanted", "procedure": "as §1"}, "bovine pericardium": {"test_system": "bovine pericardium", "test": "21-day rat subdermal implants, Ca content by atomic absorption: pericardium", "type": "in vivo, Sprague-Dawley rats", "details": "Pericardium implanted", "procedure": "as §1"}, "[6]": {"test_system": "aortic wall segment of a bioprosthetic implant", "details": "TGA-crosslinking methodology, related art; cited from earlier work"}, "[7]": {"test_system": "bovine pericardial calcification", "details": "TGA-crosslinking methodology, related art; cited from earlier work"}, "[8]": {"details": "substrate 0.1 M, epoxide 0.3 M, time of reaction 3 h"}, "[9]": {"details": "substrate 0.1 M, epoxide 0.3 M, time of reaction 19 h"}, "[10]": {"details": "substrate 0.2 M, epoxide 0.1 M, time of reaction 1 h"}, "[11]": {"details": "substrate 0.4 M, epoxide 0.3 M, time of reaction 120 h"}, "[12]": {"details": "substrate 0.1 M, epoxide 0.3 M, time of reaction 48 h"}, "[13]": {"details": "substrate 0.2 M, epoxide 0.06 M, time of reaction 1.75 h"}, "[14]": {"details": "substrate 0.2 M, epoxide 0.1 M, time of reaction 2 h"}, "[15]": {"details": "substrate 0.1 M, epoxide 0.3 M, time of reaction 120 h"}, "[16]": {"details": "substrate 0.1 M, epoxide 0.3 M, time of reaction 5 min"}, "[17]": {"details": "substrate 0.1 M, epoxide 0.3 M, time of reaction 15 min"}}, "note": "Marks after values point to notes of the source that are not given here."}
{"compound": "CSCCC(NC(C)=O)C(=O)O", "note": "(racemic) [N-Acetyl-DL-methionine]", "values": [{"measurement": "reactivity relative to nucleophiles without a sulfur atom", "setting": "[1]", "value": "at least twenty times more reactive"}, {"measurement": "Reacted substrate", "setting": "[1]; [8]", "value": 33, "unit": "%"}, {"measurement": "k · 10^3", "setting": "[1]; [8]", "value": 473, "unit": "l/mol · h"}, {"measurement": "Reacted substrate", "setting": "[1]; [9]", "value": 89, "unit": "%"}, {"measurement": "k · 10^3", "setting": "[1]; [9]", "value": 488, "unit": "l/mol · h"}]}
{"compound": "N[C@@H](CS)C(=O)O", "note": "[Cysteine]", "values": [{"measurement": "reactivity relative to nucleophiles without a sulfur atom", "setting": "[1]", "value": "at least twenty times more reactive"}, {"measurement": "Reacted substrate", "setting": "[1]; [10]", "value": 13, "unit": "%"}, {"measurement": "k · 10^3", "setting": "[1]; [10]", "value": 1618, "unit": "l/mol · h"}, {"measurement": "K * 10^3", "setting": "[2]; [10]", "value": "1618 1/mol * h"}, {"measurement": "Reacted substrate", "setting": "[2]; [10]", "value": 13, "unit": "%"}]}
{"compound": "O=CCCCC=O", "note": "[Glutaraldehyde]", "values": [{"measurement": "Ca", "setting": "[3]; 21-day rat subdermal implants", "value": "89.03 +/− 5.59* μg/mg dry wt."}, {"measurement": "Rat weight", "setting": "[4]; Cusp implanted", "value": "268.8 ± 6.5", "unit": "g"}]}
{"compound": "CC(O)(P(=O)(O)O)P(=O)(O)O", "note": "[HEDP]", "values": [{"measurement": "Reacted substrate", "setting": "[1]; [11]", "value": 5.5, "unit": "%"}, {"measurement": "k · 10^3", "setting": "[1]; [11]", "value": 1.6, "unit": "l/mol · h"}]}
{"compound": "c1c[nH]cn1", "note": "[Imidazole]", "values": [{"measurement": "Reacted substrate", "setting": "[1]; [12]", "value": 28, "unit": "%"}, {"measurement": "k · 10^3", "setting": "[1]; [12]", "value": 24, "unit": "l/mol · h"}]}
{"compound": "O=P(O)(O)C(CNCCS)P(=O)(O)O", "note": "[MABP, 2-(2-mercaptoethylamino)-ethylidene-1,1-bisphosphonate]", "values": [{"measurement": "rate of reaction with TGA-epoxy (k)", "setting": "[2]", "value": 1.2, "unit": "mol⁻¹ h⁻¹"}, {"measurement": "K * 10^3", "setting": "[2]; [13]", "value": "1120 1/mol * h"}, {"measurement": "Reacted substrate", "setting": "[2]; [13]", "value": 10, "unit": "%"}, {"measurement": "interference of MABP with the TGA crosslinking process (DSC)", "setting": "[5]; equimolar concentration of MABP and TGA (100 mM each) versus the other conditions", "value": "grossly slowed the crosslinking process"}, {"measurement": "effects on rat weight gain", "setting": "[4]; inclusion of MABP", "value": "no significant effects"}]}
{"compound": "O=P(O)(O)C(CS)P(=O)(O)O", "note": "[MEBP, 2-mercaptoethlidene-1,1-bisphosphonate]", "values": [{"measurement": "rate of reaction with TGA-epoxy (k)", "setting": "[2]", "value": 0.035, "unit": "mol⁻¹ h⁻¹"}, {"measurement": "K * 10^3", "setting": "[2]; [14]", "value": "35 1/mol * h"}, {"measurement": "Reacted substrate", "setting": "[2]; [14]", "value": 0.7, "unit": "%"}]}
{"compound": "CC(=O)N[C@@H](Cc1c[nH]cn1)C(=O)O", "note": "[N-Acetyl-L-histidine]", "values": [{"measurement": "Reacted substrate", "setting": "[1]; [15]", "value": 60, "unit": "%"}, {"measurement": "k · 10^3", "setting": "[1]; [15]", "value": 29, "unit": "l/mol · h"}]}
{"compound": "C1OC1CN(CC1CO1)CC1CO1", "note": "(centres unmarked) [TGA, triglycidyl amine]", "values": [{"measurement": "shrink temperature (Ts)", "setting": "[5]; Day 1 of crosslinking", "value": "72.6 +/− 1.0"}, {"measurement": "shrink temperature (Ts)", "setting": "[5]; Day 2 of crosslinking", "value": "77.4 +/− 0.5"}, {"measurement": "shrink temperature (Ts)", "setting": "[5]; Day 3 of crosslinking", "value": "78.2 +/− 0.3"}, {"measurement": "shrink temperature (Ts)", "setting": "[5]; Day 4 of crosslinking", "value": "79.6 +/− 0.4"}, {"measurement": "shrink temperature (Ts)", "setting": "[5]; Day 6 of crosslinking", "value": "80.2 +/− 0.3"}, {"measurement": "shrink temperature (Ts)", "setting": "[5]; Day 7 of crosslinking", "value": "81.0 +/− 0.6"}, {"measurement": "Ca", "setting": "porcine aortic wall", "value": "7.73 +/− 0.90 μg/mg dry wt."}, {"measurement": "Ca", "setting": "bovine pericardium", "value": "11.23 +/− 4.74 μg/mg dry wt."}, {"measurement": "Ca", "setting": "[3]; rat subdermal implants, prev. exp.", "value": "2.07 +/− 0.31 μg/mg dry wt."}, {"measurement": "inhibition of calcification of the aortic wall segment", "setting": "[6]", "value": "relatively ineffective"}, {"measurement": "inhibiting bovine pericardial calcification", "setting": "[7]", "value": "less effective"}, {"measurement": "Rat weight", "setting": "[4]; Aortic wall implanted", "value": "247.8 ± 7.9", "unit": "g"}, {"measurement": "Rat weight", "setting": "[4]; Pericardium implanted", "value": "268.2 ± 9.9", "unit": "g"}]}
{"compound": "O=S(O)(O)=S", "note": "[Thiosulfate]", "values": [{"measurement": "reactivity relative to nucleophiles without a sulfur atom", "setting": "[1]", "value": "at least twenty times more reactive"}, {"measurement": "Reacted substrate", "setting": "[1]; [16]", "value": 30, "unit": "%"}, {"measurement": "k · 10^3", "setting": "[1]; [16]", "value": "23 000 l/mol · h"}, {"measurement": "Reacted substrate", "setting": "[1]; [17]", "value": 52, "unit": "%"}, {"measurement": "k · 10^3", "setting": "[1]; [17]", "value": "17 000 l/mol · h"}, {"measurement": "K * 10^3", "setting": "[2]; [16]", "value": "23000 1/mol * h"}, {"measurement": "Reacted substrate", "setting": "[2]; [16]", "value": 30, "unit": "%"}, {"measurement": "K * 10^3", "setting": "[2]; [17]", "value": "17000 1/mol * h"}, {"measurement": "Reacted substrate", "setting": "[2]; [17]", "value": 52, "unit": "%"}]}
{"compound": "Phosphate", "values": [{"measurement": "Reacted substrate", "setting": "[1]; [11]", "value": 12, "unit": "%"}, {"measurement": "k · 10^3", "setting": "[1]; [11]", "value": 3.9, "unit": "l/mol · h"}]}
